Reference: patent US20220402950A1, “SUBSTITUTED BENZIMIDAZOLES AS PAD4 INHIBITORS” (BRISTOL-MYERS SQUIBB COMPANY, priority 2018, published 2022)

Biological target: human PAD4 (hPAD4) (Homo sapiens, UniProt Q9UM07)
Test: RFMS Human PAD4 Functional Assay
Type: biochemical
Conditions: hPAD4 RFMS IC50, human PAD4, rapid-fire mass spectrum (RFMS) assay; 5 nM hPAD4, 250 μM BAEE
Procedure: RFMS Human PAD4 Functional Assay:
Compounds were solubilized in 100% DMSO to achieve a 10 mM compound concentration. Compound stock solutions were stored at RT. A series of dilutions were prepared in DMSO and mixed 8 times with 20 μL mixing volume. Final top concentration of compound in the assay is 50 μM.
0.13 μL of compound solution was added to 13 μL of 10 nM PAD4 in assay buffer. After 30 min 13 μl of 500 μM of BAEE was added in 25 mM hepes, pH 7.5, 5 mM NaCl, 1 mM DTT, 0.2 mg/ml BSA, 0.01% CHAPS, 50 μM Calcium, 5 μM TPEN was added and the reaction incubated for 90 min at 37° C. The enzymatic reaction was quenched by addition of 15 μl of 6.1N TCA, 100% Final Concentration is 20%, 35 μl of 8.5 mM phenyl glyoxal (final concentration 4 mM) is then added and the reaction is incubated for 30 min at 37° C.
After 30 minutes the plates are spun down to remove all precipitate. The enzyme reaction was quenched with an equal volume of methanol containing internal standard (modified citrulline). Samples were loaded onto the Rapid Fire RF300 system (Agilent) wherein they were first sipped for 1000 ms and then directly loaded to a C18 separations cartridge using a mixture of acetonitrile containing 0.01% formic acid for 3000 ms desalting. The flow rate of the mobile phase was 1.5 ml/min.
The dwell time for each transition was set at 200 ms, and the ESI voltage was used at 5500 with a source temperature of 400° C. Extracted ion peaks for each transition were integrated using the Rapid Fire Integrator software. Peak area of analyte was normalized with internal standard.).

Chain of human PAD4 (hPAD4) (Q9UM07 whole entry): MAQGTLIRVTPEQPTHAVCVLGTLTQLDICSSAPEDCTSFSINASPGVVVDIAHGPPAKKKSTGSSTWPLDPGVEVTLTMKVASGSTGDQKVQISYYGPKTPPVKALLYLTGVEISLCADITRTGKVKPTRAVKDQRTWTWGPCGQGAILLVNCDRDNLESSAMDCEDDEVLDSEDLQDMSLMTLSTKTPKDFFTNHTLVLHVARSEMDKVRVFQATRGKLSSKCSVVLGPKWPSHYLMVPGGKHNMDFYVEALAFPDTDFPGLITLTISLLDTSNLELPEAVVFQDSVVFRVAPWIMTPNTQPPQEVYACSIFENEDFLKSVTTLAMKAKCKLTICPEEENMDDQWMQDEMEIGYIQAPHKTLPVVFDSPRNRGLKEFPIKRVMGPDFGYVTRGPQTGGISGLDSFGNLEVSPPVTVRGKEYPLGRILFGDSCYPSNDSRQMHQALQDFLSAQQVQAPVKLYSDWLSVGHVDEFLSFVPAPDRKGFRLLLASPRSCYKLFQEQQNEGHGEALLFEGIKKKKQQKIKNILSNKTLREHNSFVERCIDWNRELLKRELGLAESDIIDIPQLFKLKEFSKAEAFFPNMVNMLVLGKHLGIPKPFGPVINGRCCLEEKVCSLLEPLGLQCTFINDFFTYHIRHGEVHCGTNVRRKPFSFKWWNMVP

| Compound | IC50 |
| --- | --- |
| COc1cc(C(=O)N2C[C@H]3CC[C@@H]2[C@@H]3N)cc2nc(-c3cc4cccc(CC5CCCCO5)c4n3CC3CC3)n(C)c12 (stereo partly drawn) [Example 36, (1R,4R,7R)-2-{2-[1-(cyclopropylmethyl)-7-[(oxan-2-yl)methyl]-1H-indol-2-yl]-7-methoxy-1-methyl-1H-1,3-benzodiazole-5-carbonyl}-2-azabicyclo[2.2.1]heptan-7-amine] | 0.199 µM |
| COc1cc(C(=O)N2C[C@H](N)C[C@@H](F)C2)cc2nc(-c3cc4cccc(-c5ccc6c(c5)C(C)(O)C(=O)N6)c4n3CC3CC3)n(C)c12 (stereo partly drawn) [Example 208, 5-(2-(5-((3R,5R)-3-amino-5-fluoropiperidine-1-carbonyl)-7-methoxy-1-methyl-1H-benzo[d]imidazol-2-yl)-1-(cyclopropylmethyl)-1H-indol-7-yl)-3-hydroxy-3-methylindolin-2-one] | 0.071 µM |
| COc1cc(C(=O)N2CC3CCC2[C@@H]3N)cc2nc(-c3cc4cccc(-c5ccc6ccn(C)c6c5)c4n3CC3CC3)n(C)c12 (stereo partly drawn) [Example 126, ((7R)-7-amino-2-azabicyclo[2.2.1]heptan-2-yl)(2-(1′-(cyclopropylmethyl)-1-methyl-1H,1′H-[6,7′-biindol]-2′-yl)-7-methoxy-1-methyl-1H-benzo[d]imidazol-5-yl)methanone] | 0.11 µM |
| COc1cc(C(=O)N2C[C@H]3CC[C@@H]2[C@@H]3N)cc2nc(-c3cc4cccc(-c5cn[nH]c5)c4n3CC3CC3(Cl)Cl)n(C)c12 (stereo partly drawn) [Example 151, ((1R,4R,7R)-7-amino-2-azabicyclo[2.2.1]heptan-2-yl)(2-(1-((2,2-dichlorocyclopropyl)meth-yl)-7-(1H-pyrazol-4-yl)-1H-indol-2-yl)-7-methoxy-1-methyl-1H-benzo[d]imidazol-5-yl)methanone] | 0.104 µM |
| COc1cc(C(=O)N2C[C@H]3CC[C@@H]2[C@@H]3N)cc2nc(-c3cc4cccc(CC5CCNCC5)c4n3CC3CC3)n(C)c12 [Example 10, (1R,4R,7R)-2-{2-[1-(cyclopropylmethyl)-7-[(piperidin-4-yl)methyl]-1H-indol-2-yl]-7-methoxy-1-methyl-1H-1,3-benzodiazole-5-carbonyl}-2-azabicyclo[2.2.1]heptan-7-amine] | 0.128 µM |
| COc1cc(C(=O)N2CC3CCC2[C@@H]3N)cc2nc(-c3cc4cccc(-c5cccnc5)c4n3CC3CC3)n(C)c12 (stereo partly drawn) [Example 134, ((7R)-7-amino-2-azabicyclo[2.2.1]heptan-2-yl)(2-(1-(cyclopropylmethyl)-7-(pyridin-3-yl)-1H-indol-2-yl)-7-methoxy-1-methyl-1H-benzo[d]imidazol-5-yl)methanone] | 0.155 µM |
| COc1cc(C(=O)N2C[C@H](N)C[C@@H](F)C2)cc2nc(-c3cc4cccc(-c5ccc(O)c(F)c5)c4n3CC3CC3)n(C)c12 [Example 206, ((3R,5R)-3-amino-5-fluoropiperidin-1-yl)(2-(1-(cyclopropylmethyl)-7-(3-fluoro-4-hydroxyphenyl)-1H-indol-2-yl)-7-methoxy-1-methyl-1H-benzo[d]imidazol-5-yl)methanone] | 0.145 µM |

Now from value to molecule:

| IC50 | Compound |
| --- | --- |
| 0.058 µM | COc1cc(C(=O)N2CC3CCC2[C@@H]3N)cc2nc(-c3cc4cccc(Nc5ccnc(C)c5)c4n3CC3CC3)n(C)c12 (stereo partly drawn) [Example 163, ((7R)-7-amino-2-azabicyclo[2.2.1]heptan-2-yl)(2-(1-(cyclopropylmethyl)-7-((2-methylpyridin-4-yl)amino)-1H-indol-2-yl)-7-methoxy-1-methyl-1H-benzo[d]imidazol-5-yl)methanone] |
| 0.053 µM | [2H]C([2H])([2H])N(C(=O)C1CC(c2cccc3cc(-c4nc5cc(C(=O)N6C[C@H]7CC[C@@H]6[C@@H]7N)cc(OC)c5n4C)n(CC4CC4)c23)C1)C([2H])([2H])[2H] (single isomer, unassigned; isomer 2) [Example 196] |
| 0.052 µM | COc1cc(C(=O)N2C[C@H](N)C[C@@H](F)C2)cc2nc(-c3cc4cccc(C5CC(C(N)=O)C5)c4n3CC3CC3)n(C)c12 (single isomer, unassigned) [Example 113] |
| 0.051 µM | COc1cc(C(=O)N2C[C@H]3CC[C@@H]2[C@@H]3N)cc2nc(-c3cc4cccc(C5CC(C(=O)N6CC[C@H](O)C6)C5)c4n3CC3CC3)n(C)c12 (single isomer, unassigned) [Example 53] |
| 0.043 µM | COc1cc(C(=O)N2C[C@H]3CC[C@@H]2[C@@H]3N)cc2nc(-c3cc4cccc(C5=CCN(C(C)=O)CC5)c4n3CC3CC3)n(C)c12 [Example 220, 1-(4-(2-(5-((1R,4R,7R)-7-amino-2-azabicyclo[2.2.1]heptane-2-carbonyl)-7-methoxy-1-methyl-1H-benzo[d]imidazol-2-yl)-1-(cyclopropylmethyl)-1H-indol-7-yl)-3,6-dihydropyridin-1(2H)-yl)ethan-1-one] |
| 0.032 µM | COc1cc(C(=O)N2C[C@H]3CC[C@@H]2[C@@H]3N)cc2nc(-c3cc4cccc(CCC5CCCNC5)c4n3CC3CC3)n(C)c12 (stereo partly drawn) [Example 32, (1R,4R,7R)-2-{2-[1-(cyclopropylmethyl)-7-[2-(piperidin-3-yl)ethyl]-1H-indol-2-yl]-7-methoxy-1-methyl-1H-1,3-benzodiazole-5-carbonyl}-2-azabicyclo[2.2.1]heptan-7-amine] |
| 0.03 µM | COc1cc(C(=O)N2C[C@H]3CC[C@@H]2[C@@H]3N)cc2nc(-c3cc4cccc(C5CN(C(N)=O)C5)c4n3CC3CC3)n(C)c12 [Example 66, 3-(2-{5-[(1R,4R,7R)-7-amino-2-azabicyclo[2.2.1]heptane-2-carbonyl]-7-methoxy-1-methyl-1H-1,3-benzodiazol-2-yl}-1-(cyclopropylmethyl)-1H-indol-7-yl)azetidine-1-carboxamide] |
| 0.023 µM | COc1cc(C(=O)N2C[C@H]3CC[C@@H]2[C@@H]3N)cc2nc(-c3cc4cccc(-c5ccc6c(c5)CC(=O)N6)c4n3CC3CC3)n(C)c12 [Example 97, 2′-{5-[(1R,4R,7R)-7-amino-2-azabicyclo[2.2.1]heptane-2-carbonyl]-7-methoxy-1-methyl-1H-1,3-benzodiazol-2-yl}-1′-(cyclopropylmethyl)-2,3-dihydro-1H,1′H-[5,7′-biindole]-2-one] |
| 0.016 µM | COc1cc(C(=O)N2C[C@H]3CC[C@@H]2[C@@H]3N)cc2nc(-c3cc4cccc(C5CN(C(=O)Cc6nnn[nH]6)C5)c4n3CC3CC3)n(C)c12 [Example 81, 1-[3-(2-{5-[(1R,4R,7R)-7-amino-2-azabicyclo[2.2.1]heptane-2-carbonyl]-7-methoxy-1-methyl-1H-1,3-benzodiazol-2-yl}-1-(cyclopropylmethyl)-1H-indol-7-yl)azetidin-1-yl]-2-(1H-1,2,3,4-tetrazol-5-yl)ethan-1-one] |
| 0.006 µM | COc1ccc(NC(=O)N2CCC(c3cccc4cc(-c5nc6cc(C(=O)N7C[C@H]8CC[C@@H]7[C@@H]8N)cc(OC)c6n5C)n(CC5CC5)c34)CC2)cc1 [Example 246, 4-(2-(5-((1R,4R,7R)-7-amino-2-azabicyclo[2.2.1]heptane-2-carbonyl)-7-methoxy-1-methyl-1H-benzo[d]imidazol-2-yl)-1-(cyclopropylmethyl)-1H-indol-7-yl)-N-(4-methoxyphenyl)piperi-dine-1-carboxamide] |

Same assay, conditions: human PAD4, rapid-fire mass spectrum (RFMS) assay; 5 nM hPAD4, 250 μM BAEE; read-out: hPAD4 RFMS IC50

| IC50 | Compound |
| --- | --- |
| 0.021 µM | COC(=O)N1CC(c2cccc3cc(-c4nc5cc(C(=O)N6C[C@H]7CC[C@@H]6[C@@H]7N)cc(OC)c5n4C)n(CC4CC4)c23)C1 [Example 40, Methyl 3-(2-(5-((1R,4R,7R)-7-amino-2-azabicyclo[2.2.1]heptane-2-carbonyl)-7-methoxy-1-methyl-1H-benzo[d]imidazol-2-yl)-1-(cyclopropylmethyl)-1H-indol-7-yl)azetidine-1-carboxylate] |
| 0.065 µM | COc1cc(C(=O)N2C[C@H]3CC[C@@H]2[C@@H]3N)cc2nc(-c3cc4cccc(-c5ccc(O)c(C(N)=O)c5)c4n3CC3CC3)n(C)c12 [Example 120, 5-(2-(5-((1R,4R,7R)-7-amino-2-azabicyclo[2.2.1]heptane-2-carbonyl)-7-methoxy-1-methyl-1H-benzo[d]imidazol-2-yl)-1-(cyclopropylmethyl)-1H-indol-7-yl)-2-hydroxybenzamide] |
| 0.034 µM | COc1cc(C(=O)N2C[C@H]3CC[C@@H]2[C@@H]3N)cc2nc(-c3cc4cccc(C5CC6(CNC6)C5)c4n3CC3CC3)n(C)c12 [Example 61, (1R,4R,7R)-2-[2-(7-{2-azaspiro[3.3]heptan-6-yl}-1-(cyclopropylmethyl)-1H-indol-2-yl)-7-methoxy-1-methyl-1H-1,3-benzodiazole-5-carbonyl]-2-azabicyclo[2.2.1]heptan-7-amine] |
| 0.059 µM | COc1cc(C(=O)N2C[C@H]3CC[C@@H]2[C@@H]3N)cc2nc(-c3cc4cccc(C5CC(NC(C)=O)C5)c4n3CC3CC3)n(C)c12 (single isomer, unassigned) [Example 59] |

| Compound | IC50 |
| --- | --- |
| CCOP(=O)(OCC)c1cccc2cc(-c3nc4cc(C(=O)N5C[C@H]6CC[C@@H]5[C@@H]6N)cc(OC)c4n3C)n(CC3CC3)c12 [Example 107, diethyl (2-{5-[(1R,4R,7R)-7-amino-2-azabicyclo[2.2.1]heptane-2-carbonyl]-7-methoxy-1-methyl-1H-1,3-benzodiazol-2-yl}-1-(cyclopropylmethyl)-1H-indol-7-yl)phosphonate] | 0.086 µM |
